Patent US20180099931A1 (AbbVie S.à.r.l., priority 2016, published 2018)
pEC50: −log10 of the molar value. Read-outs that look alike come from different tables or passages of the source.

Molecular target: T1, F508delCFTR (Homo sapiens, UniProt P13569, DEL508-508)
T1 construct: expressed in transfected cells; host or cells: CFBE41o- human lung-derived epithelial cells (CFBE4lo-F508delCFTR-HRP), doxycycline-inducible
Experiment: Cell Surface Expression-Horse Radish Peroxidase (CSE-HRP) Assay;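 for Maximum % activity (with co-corrector): co-corrector and positive control are both the same reference corrector at 2 µM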;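 for Maximum % activity (without co-corrector): percent of the 2 µM on-plate positive control corrector response above DMSO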
Type: cell-based
Details: for Emax: read-out: Maximum % activity (without co-corrector)

[1] = test compound without co-corrector, read-out: EC50 (without co-corrector)
[2] = with co-corrector (2 μM of 3-[(2R,4R)-4-({[1-(2,2-difluoro-1,3-benzodioxol-5-yl)cyclopropyl]carbonyl}amino)-7-methoxy-3,4-dihydro-2H-chromen-2-yl]benzoic acid), read-out: EC50 (with co-corrector)
[3] = with co-corrector (2 μM), maximum at any tested concentration, normalized to on-plate positive control
[4] = without co-corrector, maximum at any tested concentration, normalized to on-plate positive control
[5] = test compound without co-corrector, maximum at any tested concentration, normalized to on-plate positive control
[6] = with co-corrector (2 μM of 3-[(2R,4R)-4-({[1-(2,2-difluoro-1,3-benzodioxol-5-yl)cyclopropyl]carbonyl}amino)-7-methoxy-3,4-dihydro-2H-chromen-2-yl]benzoic acid), maximum at any tested concentration, normalized to on-plate positive control
[7] = CSE-HRP, test compound without co-corrector, read-out: EC50 (without co-corrector)
[8] = CSE-HRP, with co-corrector (2 μM of 3-[(2R,4R)-4-({[1-(2,2-difluoro-1,3-benzodioxol-5-yl)cyclopropyl]carbonyl}amino)-7-methoxy-3,4-dihydro-2H-chromen-2-yl]benzoic acid), read-out: EC50 (with co-corrector)
[9] = CSE-HRP, with co-corrector (2 μM), maximum at any tested concentration, normalized to on-plate positive control
[10] = CSE-HRP, without co-corrector, maximum at any tested concentration, normalized to on-plate positive control

T1 sequence (P13569 with tags, fused parts or gaps DEL508-508): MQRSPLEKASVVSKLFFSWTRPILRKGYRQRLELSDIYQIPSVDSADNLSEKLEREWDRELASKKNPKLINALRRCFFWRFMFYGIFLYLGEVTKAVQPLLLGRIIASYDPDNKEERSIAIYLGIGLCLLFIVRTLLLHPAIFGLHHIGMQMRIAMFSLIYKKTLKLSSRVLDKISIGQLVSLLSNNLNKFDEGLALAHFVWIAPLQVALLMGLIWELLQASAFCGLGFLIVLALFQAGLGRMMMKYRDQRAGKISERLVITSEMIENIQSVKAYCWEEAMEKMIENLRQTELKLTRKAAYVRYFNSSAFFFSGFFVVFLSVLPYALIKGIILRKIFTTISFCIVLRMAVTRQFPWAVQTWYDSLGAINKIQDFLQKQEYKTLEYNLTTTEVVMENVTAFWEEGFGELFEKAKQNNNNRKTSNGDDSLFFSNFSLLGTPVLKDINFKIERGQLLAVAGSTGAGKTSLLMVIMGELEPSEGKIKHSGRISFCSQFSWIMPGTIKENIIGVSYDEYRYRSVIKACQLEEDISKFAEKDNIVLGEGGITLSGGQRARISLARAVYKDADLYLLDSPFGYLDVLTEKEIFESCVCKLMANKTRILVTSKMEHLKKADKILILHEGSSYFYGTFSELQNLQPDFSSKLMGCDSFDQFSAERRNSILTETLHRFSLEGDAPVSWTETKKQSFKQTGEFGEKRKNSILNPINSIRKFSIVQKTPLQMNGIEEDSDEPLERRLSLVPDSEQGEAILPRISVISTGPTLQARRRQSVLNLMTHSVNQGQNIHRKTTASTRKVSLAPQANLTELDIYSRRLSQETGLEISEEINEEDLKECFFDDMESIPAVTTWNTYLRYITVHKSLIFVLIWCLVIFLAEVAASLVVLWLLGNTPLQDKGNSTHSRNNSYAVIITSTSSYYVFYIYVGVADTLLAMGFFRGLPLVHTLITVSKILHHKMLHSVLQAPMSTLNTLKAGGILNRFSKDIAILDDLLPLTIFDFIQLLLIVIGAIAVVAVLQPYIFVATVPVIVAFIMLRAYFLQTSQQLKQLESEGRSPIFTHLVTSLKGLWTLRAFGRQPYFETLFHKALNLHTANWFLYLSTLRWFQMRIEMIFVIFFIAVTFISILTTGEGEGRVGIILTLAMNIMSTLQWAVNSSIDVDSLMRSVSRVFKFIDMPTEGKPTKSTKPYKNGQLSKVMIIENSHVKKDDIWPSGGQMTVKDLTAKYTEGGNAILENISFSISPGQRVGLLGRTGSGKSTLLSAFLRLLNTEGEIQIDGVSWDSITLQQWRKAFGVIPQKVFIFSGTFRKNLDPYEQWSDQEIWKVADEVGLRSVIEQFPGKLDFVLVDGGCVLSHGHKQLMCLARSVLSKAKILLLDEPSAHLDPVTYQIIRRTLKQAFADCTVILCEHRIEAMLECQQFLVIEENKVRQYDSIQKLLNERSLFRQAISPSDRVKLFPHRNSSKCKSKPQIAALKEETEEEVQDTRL

| Structure (SMILES) | pEC50 [1] | pEC50 [2] | Maximum % activity (with co-corrector) [3] | Emax [4] | Emax [5] | Maximum % activity (with co-corrector) [6] | pEC50 [7] | pEC50 [8] | Maximum % activity (with co-corrector) [9] | Emax [10] | Maximum % activity (without co-corrector) [5] |
| --- | --- | --- | --- | --- | --- | --- | --- | --- | --- | --- | --- |
| COc1nc(C(C)(C)C)ncc1CN[C@H]1[C@H](C(C)(C)C)[C@@H](C(=O)O)N(C(=O)C2CCCCC2)[C@H]1c1ccccc1 [Example I-207] | 5.00 to 6.00 | 5.00 to 6.00 | +++ (≥350) | 100 to 200% |  |  |  |  |  |  |  |
| COc1cccc([C@@H]2[C@H](NCc3cc(C(F)(F)F)ccc3OC)[C@@H](C(C)(C)C)[C@H](C(=O)O)N2C(=O)C2CCCCO2)n1 (mixture of isomers) [Example I-23] | 5.00 to 6.00 | 5.00 to 6.00 | +++ (≥350) | < 100% |  |  |  |  |  |  |  |
| COc1c(C#N)c(N[C@H]2[C@H](C(C)(C)C)[C@@H](C(=O)O)N(C(=O)C3CCCCC3)[C@H]2c2ccccc2)nc2ccccc12 [Example I-55] | 5.00 to 6.00 | 5.00 to 6.00 | +++ (≥350) | < 100% |  |  |  |  |  |  |  |
| COc1ccc(C(C)(C)C)cc1CN[C@H]1[C@H](C(C)(C)C)[C@@H](C(=O)O)N(C(=O)c2ccc(OC3CCCCC3)cc2)[C@H]1c1cccnc1N(C)C [Example I-200] | 5.00 to 6.00 | > 6.00 | +++ (≥350) | 100 to 200% |  |  |  |  |  |  |  |
| COc1ncccc1NC1CC(N[C@H]2[C@H](C(C)(C)C)[C@@H](C(=O)O)N(C(=O)OC(C)C)[C@H]2c2ccccc2C2CC2)C1 (stereo partly shown) [Example I-276] |  |  |  |  |  |  | 5.00 to 6.00 | 5.00 to 6.00 | +++ (≥350) | 100 to 200% |  |
| COc1ccc(C(C)(C)C)cc1CN[C@H]1[C@H](C(C)(C)C)[C@@H](C(=O)O)N(C(=O)[C@H]2OCC[C@H]2C(C)C)[C@H]1c1ccccc1 (relative stereo) [Example 23, (2S,3S,4S,5S)-3-tert-butyl-4-{[(5-tert-butyl-2-methoxyphenyl)methyl]amino}-5-phenyl-1-[(2S*,3S*)-3-(propan-2-yl)oxolane-2-carbonyl]pyrrolidine-2-carboxylic acid] | 5.00 to 6.00 | > 6.00 | +++ (≥350) | > 200% |  |  |  |  |  |  |  |
| COc1ccc(C(C)(C)C)cc1CN[C@H]1[C@H](C(C)(C)C)[C@@H](C(=O)O)N(C(=O)OC(C)C)[C@H]1c1ccccc1 [Example I-81] | 5.00 to 6.00 | 5.00 to 6.00 | +++ (≥350) | > 200% |  |  |  |  |  |  |  |
| COc1ccc(C(F)(F)F)cc1CN[C@@H]1[C@@H](C(C)(C)C)[C@H](C(=O)O)N(C(=O)C(C)(C)OC)[C@@H]1c1ccccc1 (racemic) [Example I-41] | < 5.00 | 5.00 to 6.00 | ++ (≥150 and <350) | < 100% |  |  |  |  |  |  |  |
| COc1ncc(C(F)(F)F)cc1N[C@@H]1[C@@H](C(C)(C)C)[C@H](C(=O)O)N(C(=O)C2CCCCC2)[C@@H]1c1ccccc1 (racemic) [Example I-15] | > 6.00 | > 6.00 | +++ (≥350) | < 100% |  |  |  |  |  |  |  |
| COc1nc(C(C)(C)C)ccc1CN[C@H]1[C@H](C(C)(C)C)[C@@H](C(=O)O)N(C(=O)OC(C)C)[C@H]1c1ccccc1 [Example I-194] | 5.00 to 6.00 | 5.00 to 6.00 | +++ (≥350) | > 200% |  |  |  |  |  |  |  |
| COc1ccc(C(F)(F)F)cc1CN[C@H]1[C@H](C(C)(C)C)[C@@H](C(=O)O)N(C(=O)OC(C)C)[C@H]1c1cccnc1OC(C)C [Example 78, (2S,3S,4S,5S)-3-tert-butyl-4-({[2-methoxy-5-(trifluoromethyl)phenyl]methyl}amino)-1-{[(propan-2-yl)oxy]carbonyl}-5-{2-[(propan-2-yl)oxy]pyridin-3-yl}pyrrolidine-2-carboxylic acid] | 5.00 to 6.00 | 5.00 to 6.00 | +++ (≥350) | > 200% |  |  |  |  |  |  |  |

Other lines, results leading:

| pEC50 [1] | pEC50 [2] | Maximum % activity (with co-corrector) [3] | Emax [4] | Emax [5] | Maximum % activity (with co-corrector) [6] | pEC50 [7] | pEC50 [8] | Maximum % activity (with co-corrector) [9] | Emax [10] | Maximum % activity (without co-corrector) [5] | Structure (SMILES) |
| --- | --- | --- | --- | --- | --- | --- | --- | --- | --- | --- | --- |
| 5.00 to 6.00 | 5.00 to 6.00 |  |  | < 100% | +++ (≥350) |  |  |  |  |  | COc1ncc(-c2cccnc2C)cc1CN[C@H]1[C@H](C(C)(C)C)[C@@H](C(=O)O)N(C(=O)C2CCCCC2)[C@H]1c1ccccc1 [II-348] |
|  |  |  |  |  |  | 5.00 to 6.00 | 5.00 to 6.00 | +++ (≥350) | > 200% |  | COc1cc(C(F)(F)F)ccc1CN[C@H]1[C@H](C(C)(C)C)[C@@H](C(=O)O)N(C(=O)OC(C)C)[C@H]1c1ccccc1OC [II-134] |
| 5.00 to 6.00 | 5.00 to 6.00 |  |  | < 100% | ++ (≥150 and <350) |  |  |  |  |  | COc1nc(C(C)(C)C)ccc1CN[C@H]1[C@H](C(C)(C)C)[C@@H](C(=O)O)N(C(=O)[C@H]2CCCCO2)[C@H]1c1cccnc1N(C)C [II-521] |
| 5.00 to 6.00 | 5.00 to 6.00 | ++ (≥150 and <350) |  | < 100% |  |  |  |  |  |  | COc1ccc(C(F)(F)F)cc1CN[C@H]1[C@H](C(C)(C)C)[C@@H](C(=O)O)N(C(=O)C2(S(C)(=O)=O)CC2)[C@H]1c1ccccc1 [III-137] |
|  |  |  |  |  |  | 5.00 to 6.00 | 5.00 to 6.00 | +++ (≥350) | > 200% |  | COc1ccc(C(F)(F)F)cc1CN[C@@H]1[C@@H](C(C)(C)C)[C@H](C(=O)O)N(C(=O)[C@@H]2CCC[C@@H](OC)C2)[C@@H]1c1ccccc1 (racemic) [II-36] |
|  |  |  |  |  |  | 5.00 to 6.00 | 5.00 to 6.00 | +++ (≥350) | 100 to 200% |  | COc1cc(C)ccc1CN[C@H]1[C@H](C(C)(C)C)[C@@H](C(=O)O)N(C(=O)C2CCCCC2)[C@H]1c1cccnc1OC [II-138] |
| < 5.00 | 5.00 to 6.00 | ++ (≥150 and <350) |  | < 100% |  |  |  |  |  |  | CC(C)(C)[C@@H]1[C@@H](NCc2cc(Br)ccc2C#N)[C@@H](c2ccccc2)N(C(=O)C2CCCCC2)[C@H]1C(=O)O (racemic) [III-109] |
| 5.00 to 6.00 | 5.00 to 6.00 |  |  |  | +++ (≥350) |  |  |  |  | ++ (≥100 and <200) | COc1ccc(C(C)(C)C)cc1CN[C@H]1[C@H](C(C)(C)C)[C@@H](C(=O)O)N(C(=O)C2CCc3cc(F)ccc3O2)[C@H]1c1cccnc1N(C)C (stereo partly shown) [II-482] |
| < 5.00 | 5.00 to 6.00 |  |  | < 100% | ++ (≥150 and <350) |  |  |  |  |  | COc1ccc(Cl)cc1CN[C@@H]1[C@@H](C2CC2)[C@H](C(=O)O)N(C(=O)N(C(C)C)C(C)C)[C@@H]1c1ccccc1 (racemic) [III-48] |
|  |  |  |  |  |  | > 6.00 | > 6.00 | +++ (≥350) | > 200% |  | COc1ccc(C2CCCCC2)cc1CN[C@H]1[C@H](C(C)(C)C)[C@@H](C(=O)O)N(C(=O)C2CCCCC2)[C@H]1c1ccccc1 [II-192] |
| 5.00 to 6.00 | 5.00 to 6.00 |  |  | < 100% | +++ (≥350) |  |  |  |  |  | COc1nc(C(C)(C)C)ccc1CN[C@H]1[C@H](C(C)(C)C)[C@@H](C(=O)O)N(C(=O)[C@H]2OC[C@H]3CCC[C@H]32)[C@H]1c1ccccc1 (relative stereo) [II-432] |
| < 5.00 | 5.00 to 6.00 |  |  | < 100% | ++ (≥150 and <350) |  |  |  |  |  | COc1ccc(C(F)(F)F)cc1CN[C@@H]1[C@@H](C(C)(C)C)[C@H](C(=O)O)N(C(=O)[C@H](OC)c2ccccc2)[C@@H]1c1ccccc1 [III-68] |
| < 5.00 | 5.00 to 6.00 |  |  | < 100% | ++ (≥150 and <350) |  |  |  |  |  | COCCOc1ncc(C(F)(F)F)cc1CN[C@@H]1[C@@H](C(C)(C)C)[C@H](C(=O)O)N(C(=O)C2CCCCC2)[C@@H]1c1ccccc1 (racemic) [III-80] |
|  |  |  |  |  |  | 5.00 to 6.00 | 5.00 to 6.00 | +++ (≥350) | < 100% |  | COc1ccccc1[C@@H]1[C@H](NCc2cc(C(F)(F)F)cnc2Cl)[C@@H](C(C)(C)C)[C@H](C(=O)O)N1C(=O)C1CCCCC1 (racemic) [II-16] |
| < 5.00 | 5.00 to 6.00 |  |  | < 100% | + (<150) |  |  |  |  |  | CC(C)(C)[C@@H]1[C@@H](NCc2cc(C(F)(F)F)ccc2OCCCS(C)(=O)=O)[C@@H](c2ccccc2)N(C(=O)C2CCCCC2)[C@H]1C(=O)O (racemic) [III-84] |
| 5.00 to 6.00 |  |  |  | < 100% | ++ (≥150 and <350) |  |  |  |  |  | COc1ccc(C(C)(C)C)cc1CN[C@H]1[C@H](C(C)(C)C)[C@@H](C(=O)O)N(C(=O)C2CCCN(C)C2=O)[C@H]1c1ccccc1 (single isomer, unassigned) [II-444] |
|  |  |  |  |  |  | 5.00 to 6.00 | 5.00 to 6.00 | +++ (≥350) | 100 to 200% |  | COc1ccc(C(C)(C)C)cc1CN[C@H]1[C@H](C(C)(C)C)[C@@H](C(=O)O)N(C(=O)C2CC(=O)N(C(C)C)C2)[C@H]1c1ccccc1 (stereo partly shown) [II-238] |
| 5.00 to 6.00 | > 6.00 |  |  | > 200% | +++ (≥350) |  |  |  |  |  | COc1ccc(-n2ncc(C(=O)N3[C@H](C(=O)O)[C@@H](C(C)(C)C)[C@H](NCc4cc(C(C)(C)C)ccc4OC)[C@@H]3c3ccccc3)c2C)cc1 [II-357] |
